Experimental data: US10696688B2, “Fused pyrimidines as isoform selective phosphoinositide-3-kinase-alpha inhibitors and process for preparation thereof” (Council of Scientific and Industrial Research, priority 2015, dated 2020)
≈ marks a conversion by molar mass, not a printed value. Where “and” joins values, the source holds several entries; their conditions need not be identical. Equal values may be shown once. Read-outs that look alike come from different tables or passages of the source. Values belong to the molecule of their own block, whether it stands above or below them.

Experiments:
[1] = target: PI3K-alpha (Homo sapiens, UniProt P42336); assay: PI3K-α assay (ADP-Glo); format: biochemical; settings: for inhibition at 0.5 µM / % PI3Kα inhibition at 500 nM: at 500 nM (0.5 μM), NI = no inhibition at tested concentration; for inhibition at 0.5 µM: read-out: % PI3Kα inhibition at 500 nM; for % PI3Kα inhibition at 500 nM: 0.5 µM
PI3K-alpha, sequence (P42336 whole entry, canonical isoform): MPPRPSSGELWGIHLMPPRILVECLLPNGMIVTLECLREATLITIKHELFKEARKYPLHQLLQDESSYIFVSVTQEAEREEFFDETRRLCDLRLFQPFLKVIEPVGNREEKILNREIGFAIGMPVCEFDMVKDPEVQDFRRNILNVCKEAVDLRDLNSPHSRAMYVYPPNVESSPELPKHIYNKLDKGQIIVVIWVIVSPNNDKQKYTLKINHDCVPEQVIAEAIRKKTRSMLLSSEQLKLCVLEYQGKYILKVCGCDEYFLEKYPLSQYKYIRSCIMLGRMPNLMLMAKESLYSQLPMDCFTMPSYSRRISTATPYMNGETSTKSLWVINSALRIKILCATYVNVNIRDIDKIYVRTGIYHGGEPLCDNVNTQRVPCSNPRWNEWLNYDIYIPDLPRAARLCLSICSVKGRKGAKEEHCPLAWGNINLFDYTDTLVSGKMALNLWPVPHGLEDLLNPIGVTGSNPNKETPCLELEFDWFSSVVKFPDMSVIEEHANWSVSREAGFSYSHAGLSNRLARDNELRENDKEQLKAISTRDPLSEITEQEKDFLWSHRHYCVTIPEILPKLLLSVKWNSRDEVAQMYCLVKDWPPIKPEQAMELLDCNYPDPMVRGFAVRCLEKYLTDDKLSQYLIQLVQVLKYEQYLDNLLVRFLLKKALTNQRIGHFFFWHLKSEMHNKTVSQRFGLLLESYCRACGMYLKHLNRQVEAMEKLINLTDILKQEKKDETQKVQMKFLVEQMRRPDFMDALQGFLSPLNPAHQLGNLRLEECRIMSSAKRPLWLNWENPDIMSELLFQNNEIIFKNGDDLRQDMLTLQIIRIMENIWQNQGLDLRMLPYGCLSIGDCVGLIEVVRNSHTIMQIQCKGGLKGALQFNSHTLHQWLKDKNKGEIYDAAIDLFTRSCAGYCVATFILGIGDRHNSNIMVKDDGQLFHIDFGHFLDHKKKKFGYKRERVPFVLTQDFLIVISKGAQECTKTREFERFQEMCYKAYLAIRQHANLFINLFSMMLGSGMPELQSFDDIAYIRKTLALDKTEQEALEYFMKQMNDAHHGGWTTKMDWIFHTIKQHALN
PI3K-alpha, sequence (P27986 whole entry partner, canonical isoform): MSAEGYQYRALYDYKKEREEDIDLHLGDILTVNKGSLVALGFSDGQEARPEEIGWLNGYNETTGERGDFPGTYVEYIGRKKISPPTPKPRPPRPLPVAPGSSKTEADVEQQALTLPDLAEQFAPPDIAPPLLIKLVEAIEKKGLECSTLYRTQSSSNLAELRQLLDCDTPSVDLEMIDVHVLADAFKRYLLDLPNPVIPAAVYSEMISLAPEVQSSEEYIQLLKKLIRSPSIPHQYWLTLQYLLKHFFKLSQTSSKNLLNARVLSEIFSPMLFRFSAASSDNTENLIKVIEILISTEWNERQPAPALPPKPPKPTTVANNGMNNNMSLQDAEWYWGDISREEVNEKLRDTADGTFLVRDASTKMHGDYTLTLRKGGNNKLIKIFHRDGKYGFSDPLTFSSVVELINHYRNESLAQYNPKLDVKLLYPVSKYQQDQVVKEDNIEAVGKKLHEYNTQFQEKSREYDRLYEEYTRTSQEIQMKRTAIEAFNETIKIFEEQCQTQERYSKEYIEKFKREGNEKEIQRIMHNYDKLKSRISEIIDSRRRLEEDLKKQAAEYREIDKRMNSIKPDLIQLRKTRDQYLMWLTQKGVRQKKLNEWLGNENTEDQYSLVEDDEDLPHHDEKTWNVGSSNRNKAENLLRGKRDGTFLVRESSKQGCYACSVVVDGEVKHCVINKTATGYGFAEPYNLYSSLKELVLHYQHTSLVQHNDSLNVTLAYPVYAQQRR
Protocol: Compounds proposed in present invention were evaluated for their inhibitory activity on phosphoinositide-3-kinase-α and other isoforms (β, γ and δ). The preliminary screening was performed at 0.5 μM. The protocols used for these bioassays are as follows:
PI3K-alpha (diluted in 12.5 mM Glycine-NaOH (pH 8.5), 50 mM KCl, 2.5 mM MgCl2, 1 mM DTT, 0.05% CHAPS) is assayed in total volume of 20 μl containing 12.5 mM glycine-NaOH (pH 8.5), 50 mM KCl, 2.5 mM MgCl2, 1 mM DTT, 0.05% CHAPS, 0.01 mM ATP and 0.05 mM diC8 PIP2. The enzyme is assayed for 80 min after which 20 μl of ADP-Glo reagent is added. After a further incubation of 40 min, 40 μl of Kinase Detection Buffer is added. The assays are incubated for 40 min and then read on PerkinElmer Envision for 1 sec/well.

[2] = Thermodynamic aqueous solubility, 96-well plate protocol; format: physicochemical; settings: for solubility: 25 °C, pH 7, water, thermodynamic from solid
Protocol: The thermodyanamic aqueous solubility was determined using 96-plate plate protocol (Bharate, S. S. and Vishwakarma, R. A. 2015, Bioorg. Med. Chem. Lett. 25, 1561-1567). […] Briefly, the compounds were loaded into 96-well plate in the form of methanolic solution, followed by evaporation of solvent to get 1, 2, 4, 8, 16, 25, 40, 80, 160 and 300 μg of compound in solid form in wells. Thereafter, 200 μl of dissolution medium was added to the wells and plates were shaken horizontally at 300 rpm for 4 h at room temperature (25±1° C.). The plates were covered with aluminium foil and were kept overnight at room temperature for equilibration. Later, the plates were centrifuged at 3000 rpm for 15 min (Jouan centrifuge BR4i). Supernatant (50 μl) was withdrawn into UV 96-well plates (Corning® 96 Well Clear Hat Bottom UV-Transparent Microplate) for analyses with microplate reader (Molecular Devices, USA) at corresponding λmax of the sample. The analysis was performed in triplicate for each compound. The solubility curve of concentration (μg/mL) vs absorbance was plotted to find out saturation point and the corresponding concentration was noted.

[3] = target: PI3K-beta (Homo sapiens, UniProt P42338); assay: PI3K-β assay (ADP-Glo); format: biochemical
PI3K-beta, sequence (P42338 whole entry): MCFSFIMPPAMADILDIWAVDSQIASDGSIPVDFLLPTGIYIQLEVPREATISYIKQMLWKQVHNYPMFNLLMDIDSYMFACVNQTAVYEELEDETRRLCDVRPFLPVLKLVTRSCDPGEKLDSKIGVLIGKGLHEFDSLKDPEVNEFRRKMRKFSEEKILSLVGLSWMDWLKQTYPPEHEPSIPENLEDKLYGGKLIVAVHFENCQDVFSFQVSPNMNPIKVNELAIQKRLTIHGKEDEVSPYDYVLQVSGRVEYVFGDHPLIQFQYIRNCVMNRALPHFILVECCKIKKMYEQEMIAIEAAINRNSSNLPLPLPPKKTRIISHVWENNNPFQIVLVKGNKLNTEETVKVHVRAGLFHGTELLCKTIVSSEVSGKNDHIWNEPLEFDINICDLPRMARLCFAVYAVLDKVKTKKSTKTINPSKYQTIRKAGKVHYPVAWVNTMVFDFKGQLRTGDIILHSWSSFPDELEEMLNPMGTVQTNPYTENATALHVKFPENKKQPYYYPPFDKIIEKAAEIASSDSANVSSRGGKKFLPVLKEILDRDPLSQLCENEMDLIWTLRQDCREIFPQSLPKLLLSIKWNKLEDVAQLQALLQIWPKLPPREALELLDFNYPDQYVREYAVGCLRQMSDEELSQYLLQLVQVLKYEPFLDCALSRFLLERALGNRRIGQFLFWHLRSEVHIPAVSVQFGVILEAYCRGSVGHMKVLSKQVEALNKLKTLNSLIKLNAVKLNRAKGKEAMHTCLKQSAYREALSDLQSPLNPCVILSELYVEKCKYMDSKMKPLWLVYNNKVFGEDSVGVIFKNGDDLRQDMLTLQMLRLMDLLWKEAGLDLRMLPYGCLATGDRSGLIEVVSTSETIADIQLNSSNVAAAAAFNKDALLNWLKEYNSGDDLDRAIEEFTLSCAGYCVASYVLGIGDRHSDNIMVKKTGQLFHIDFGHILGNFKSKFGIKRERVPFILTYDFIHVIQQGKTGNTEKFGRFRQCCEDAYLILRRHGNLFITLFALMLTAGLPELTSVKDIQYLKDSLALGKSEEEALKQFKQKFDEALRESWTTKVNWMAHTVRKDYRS
PI3K-beta, sequence (P27986 whole entry partner): as the sequence (P27986 whole entry partner, canonical isoform) above

[4] = target: PI3K-gamma (Homo sapiens, UniProt P48736); assay: PI3K-γ assay (ADP-Glo); format: biochemical
PI3K-gamma, sequence (P48736 whole entry): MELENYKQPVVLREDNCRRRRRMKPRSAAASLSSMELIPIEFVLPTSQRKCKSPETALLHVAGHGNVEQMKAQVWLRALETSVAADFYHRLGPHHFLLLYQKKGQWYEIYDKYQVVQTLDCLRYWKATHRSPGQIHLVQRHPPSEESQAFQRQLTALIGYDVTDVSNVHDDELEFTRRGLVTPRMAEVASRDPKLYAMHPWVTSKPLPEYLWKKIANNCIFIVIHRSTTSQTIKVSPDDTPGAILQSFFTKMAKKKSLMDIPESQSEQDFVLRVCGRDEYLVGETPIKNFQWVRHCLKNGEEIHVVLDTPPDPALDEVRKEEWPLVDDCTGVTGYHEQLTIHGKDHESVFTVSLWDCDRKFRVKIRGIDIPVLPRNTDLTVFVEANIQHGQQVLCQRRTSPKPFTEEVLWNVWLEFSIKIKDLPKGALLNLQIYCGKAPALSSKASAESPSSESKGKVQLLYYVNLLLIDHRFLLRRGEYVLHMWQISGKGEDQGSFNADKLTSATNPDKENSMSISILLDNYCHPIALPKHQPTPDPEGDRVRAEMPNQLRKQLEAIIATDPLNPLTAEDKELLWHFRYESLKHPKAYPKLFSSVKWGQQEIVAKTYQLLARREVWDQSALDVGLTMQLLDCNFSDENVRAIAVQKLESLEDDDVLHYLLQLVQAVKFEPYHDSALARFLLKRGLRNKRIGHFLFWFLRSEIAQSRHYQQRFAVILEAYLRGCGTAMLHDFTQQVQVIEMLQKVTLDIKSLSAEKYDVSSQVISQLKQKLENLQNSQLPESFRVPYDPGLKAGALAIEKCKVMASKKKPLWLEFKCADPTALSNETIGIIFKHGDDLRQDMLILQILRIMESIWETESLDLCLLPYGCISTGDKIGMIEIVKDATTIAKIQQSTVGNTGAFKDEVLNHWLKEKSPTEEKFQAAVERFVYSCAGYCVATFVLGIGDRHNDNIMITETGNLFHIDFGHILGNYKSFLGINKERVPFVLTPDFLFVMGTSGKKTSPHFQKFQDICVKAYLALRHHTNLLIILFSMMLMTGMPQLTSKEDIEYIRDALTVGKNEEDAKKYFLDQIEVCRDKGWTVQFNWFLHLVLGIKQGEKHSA

[5] = target: PI3K-delta (Homo sapiens, UniProt O00329); assay: PI3K-δ assay (ADP-Glo); format: biochemical
PI3K-delta, sequence (O00329 whole entry): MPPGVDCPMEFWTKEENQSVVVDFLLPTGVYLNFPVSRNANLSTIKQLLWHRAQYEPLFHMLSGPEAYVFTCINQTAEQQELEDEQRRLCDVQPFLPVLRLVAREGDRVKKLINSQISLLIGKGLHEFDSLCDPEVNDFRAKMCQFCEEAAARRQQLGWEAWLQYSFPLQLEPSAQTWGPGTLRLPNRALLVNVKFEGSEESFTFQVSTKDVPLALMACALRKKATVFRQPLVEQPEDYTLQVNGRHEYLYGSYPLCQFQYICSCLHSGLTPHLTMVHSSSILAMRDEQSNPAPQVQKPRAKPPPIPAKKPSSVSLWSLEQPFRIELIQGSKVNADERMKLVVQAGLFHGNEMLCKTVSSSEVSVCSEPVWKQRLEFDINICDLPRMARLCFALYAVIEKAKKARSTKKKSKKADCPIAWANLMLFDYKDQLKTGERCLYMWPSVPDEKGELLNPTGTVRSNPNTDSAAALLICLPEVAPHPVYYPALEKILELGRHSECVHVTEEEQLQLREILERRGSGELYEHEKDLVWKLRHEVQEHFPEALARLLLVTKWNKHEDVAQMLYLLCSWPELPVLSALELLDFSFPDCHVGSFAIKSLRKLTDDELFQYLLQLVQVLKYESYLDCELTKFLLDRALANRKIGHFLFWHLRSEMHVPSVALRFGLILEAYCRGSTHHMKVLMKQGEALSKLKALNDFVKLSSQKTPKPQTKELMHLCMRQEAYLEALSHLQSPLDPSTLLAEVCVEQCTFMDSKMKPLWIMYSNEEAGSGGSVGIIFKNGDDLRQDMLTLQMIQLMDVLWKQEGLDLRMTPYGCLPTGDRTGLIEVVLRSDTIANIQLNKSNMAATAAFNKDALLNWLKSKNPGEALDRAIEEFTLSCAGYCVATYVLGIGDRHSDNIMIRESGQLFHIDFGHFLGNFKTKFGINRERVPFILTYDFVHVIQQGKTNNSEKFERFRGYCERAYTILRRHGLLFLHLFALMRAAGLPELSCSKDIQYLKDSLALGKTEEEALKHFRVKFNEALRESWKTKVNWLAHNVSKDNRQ
PI3K-delta, sequence (P27986 whole entry partner): as the sequence (P27986 whole entry partner, canonical isoform) above

[6] = tested on: A-549 (lung cancer); assay: Cytotoxicity, MTT assay; format: cell-based; settings: Homo sapiens, A549, 48 h treatment
Protocol: (§1) Selected compounds proposed in the present invention were evaluated for their cytotoxic effect against panel of 3 cancer cell line viz. MIAPaCa-2 (pancreatic cancer), A-549 (lung cancer), and MDA-MB-231 (breast cancer) using MTT assay. In each well of a 96-well plate, 3×10^3 cells were grown in 100 μL of medium. After 24 h, each test molecules were added to achieve a final concentration of 10 to 0.01 μmol/L, respectively. After 48 h of treatment, 20 μL of 2.5 mg/mL MTT (Organics Research, Inc.) solution in phosphate buffer saline was added to each well. […], supernatant was removed and formazan crystals were dissolved in 200 μL of DMSO. Absorbance was then measured at 570 nm using an absorbance plate reader (Bio-Rad Microplate Reader). Data are expressed as the percentage of viable cells in treated relative to non-treated conditions. Each experiment was repeated thrice and data was expressed as mean±SD of three independent experiments (Mordant, P. et al., Mol. Cancer Ther. 2010, 9, 358).

[7] = tested on: MDA-MB-231 (breast cancer); assay: Cytotoxicity, MTT assay; format: cell-based; settings: Homo sapiens, 48 h treatment
Protocol: as §1

[8] = tested on: MIAPaCa-2 (pancreatic cancer); assay: Cytotoxicity, MTT assay; format: cell-based; settings: Homo sapiens, MIA PaCa-2, 48 h treatment
Protocol: as §1

[9] = tested on: Ehrlich ascites carcinoma (EAC) cells; assay: In-vivo activity in Ehrlich solid tumor model; parameters: species or system swiss mice; settings: 22 at 25 mg/kg i.p., 5-fluorouracil at 22 mg/kg i.p., day 1-9; for Day 13 % Tumor Growth Inhibition: day 13, versus saline control
[10] = dead/total animals; 22 at 25 mg/kg i.p., 5-fluorouracil at 22 mg/kg i.p., day 1-9
[11] = via glucuronidation of phenolic hydroxyl group; cited from earlier work
[12] = water (aqueous, pH 7), pH = 7, read-out: Aqueous Solubility (μg/ml) at pH = 7
[13] = water, pH = 7, read-out: Aqueous Solubility (μg/ml) at pH = 7
[14] = water, in H2O at pH = 7, read-out: Solubility μg/ml in H2O at pH = 7

inhibition at 0.5 µM [1]: 68%
solubility [2, 12]: 20 µg/mL (≈ 44.2 µM)
Structure (SMILES): Cc1ccccc1NC(=O)NC1CCN(c2nc(N3CCOCC3)c3sccc3n2)CC1 [Compound 23, 1-(1-(4-morpholinothieno[3,2-d]pyrimidin-2-yl)piperidin-4-yl)-3-(o-tolyl)urea]

% PI3Kα inhibition at 500 nM [1]: 81%
inhibition at 0.5 µM [1]: > 70%
solubility [2, 12]: 200 µg/mL (≈ 419 µM)
solubility [2, 13]: > 200 µg/mL
Structure (SMILES): CC(C)(C)OC(=O)NC1CCN(c2nc(N3CCOCC3)c3sc(C(C)(C)O)cc3n2)CC1 [Compound 17, tert-butyl (1-(6-(2-hydroxypropan-2-yl)-4-morpholinothieno[3,2-d]pyrimidin-2-yl)piperidin-4-yl)carbamate]

inhibition at 0.5 µM [1]: 59%
solubility [2, 12]: 120 µg/mL (≈ 235 µM)
Structure (SMILES): CCOC(=O)c1ccc(NC(=O)NC2CCN(c3nc(N4CCOCC4)c4sccc4n3)CC2)cc1 [Compound 21, ethyl 4-(3-(1-(4-morpholinothieno[3,2-d]pyrimidin-2-yl)piperidin-4-yl)ureido)benzoate]

Structure (SMILES): CCc1ccc(NC(=O)NC2CCN(c3nc(N4CCOCC4)c4sccc4n3)CC2)cc1 [Compound 22, 1-(4-ethylphenyl)-3-(1-(4-morpholinothieno[3,2-d]pyrimidin-2-yl)piperidin-4-yl)urea]
inhibition at 0.5 µM [1]: 74%
IC50 ([1]; read-out: IC50 for PI3Kα): 0.04 µM
IC50 [3]: > 20 µM
Fold-selectivity for PI3K-α with respect to other isoforms PI3K-β ([3]; PI3K-α versus PI3K-β): >500 fold
% inhibition of PI3K-β ([3]; up to 20 μM): 0%
IC50 [4]: > 20 µM
Fold-selectivity for PI3K-α with respect to other isoforms PI3K-γ ([4]; PI3K-α versus PI3K-γ): >500 fold
% inhibition of PI3K-γ ([4]; up to 20 μM): 0%
Fold-selectivity for PI3K-α with respect to other isoforms PI3K-δ [5]: >500 fold
IC50 [5]: > 20 µM
% inhibition of PI3K-δ ([5]; up to 20 μM): 0%
solubility [2, 14]: 800 µg/mL (≈ 1710 µM)
IC50 [6]: 7 µM
IC50 [7]: 4 µM
IC50 [8]: 5 µM
Day 13 % Tumor Growth Inhibition [9]: 32.7% and 32.73%
Day 13 Avg. tumor weights [9]: 1128.4 mg

% PI3Kα inhibition at 500 nM [1]: 76%
inhibition at 0.5 µM [1]: > 70%
solubility [2, 12]: 200 µg/mL (≈ 438 µM)
solubility [2, 13]: > 200 µg/mL
Structure (SMILES): O=C(Nc1ccccc1F)NC1CCN(c2nc(N3CCOCC3)c3sccc3n2)CC1 [Compound 25, 1-(2-fluorophenyl)-3-(1-(4-morpholinothieno[3,2-d]pyrimidin-2-yl)piperidin-4-yl)urea]

% PI3Kα inhibition at 500 nM [1]: 76.8%
inhibition at 0.5 µM [1]: > 70%
IC50 ([1]; read-out: IC50 for PI3Kα): 0.08 µM
Aqueous Solubility (μg/ml) at pH = 7 ([2]; pH = 7): 400 μg/ml
solubility [2, 13]: > 200 µg/mL
Structure (SMILES): CN1CCN(C(=O)c2ccc(NC(=O)NC3CCN(c4nc(N5CCOCC5)c5oc6ncccc6c5n4)CC3)cc2)CC1 [Compound 10, 1-(4-(4-methylpiperazine-1-carbonyl)phenyl)-3-(1-(4-morpholinopyrido[3′,2′:4,5]furo[3,2-d]pyrimidin-2-yl)piperidin-4-yl)urea]
IC50 [6]: 9 µM
IC50 [7]: 40 µM
IC50 [8]: 8 µM

% PI3Kα inhibition at 500 nM [1]: 85%
inhibition at 0.5 µM [1]: > 70%
IC50 ([1]; read-out: IC50 for PI3K (μM) PI3K-α): 0.008 µM
solubility [2, 12]: 10 µg/mL (≈ 18.3 µM)
Structure (SMILES): CCOC(=O)c1ccc(NC(=O)NC2CCN(c3nc(N4CCOCC4)c4oc5ncccc5c4n3)CC2)cc1 [Compound 8, ethyl 4-(3-(1-(4-morpholinopyrido[3′,2′:4,5]furo[3,2-d]pyrimidin-2-yl)piperidin-4-yl)ureido)benzoate]
IC50 [6]: 8 µM
IC50 [7]: 8 µM
IC50 [8]: 8 µM

inhibition at 0.5 µM [1]: 54.8%
solubility [2, 12]: 5 µg/mL (≈ 9.81 µM)
Structure (SMILES): O=S(=O)(NC1CCN(c2nc(N3CCOCC3)c3sccc3n2)CC1)c1ccc2ccccc2c1 [Compound 30, N-(1-(4-morpholinothieno [3,2-d]pyrimidin-2-yl)piperidin-4-yl)naphthalene-2-sulfonamide]

Structure (SMILES): O=c1[nH]cc(F)c(=O)[nH]1 [5-Fluorouracil, reference compound]
Day 13 % Tumor Growth Inhibition [9]: 50.04%
Day 13 Avg. tumor weights [9]: 929.42 mg
Mortality [10]: 0/7

inhibition at 0.5 µM [1]: 56%
solubility [2, 12]: 20 µg/mL (≈ 38.8 µM)
Structure (SMILES): CC(C)(C)c1ccc(S(=O)(=O)NC2CCN(c3nc(N4CCOCC4)c4sccc4n3)CC2)cc1 [Compound 28, 4-(tert-butyl)-N-(1-(4-morpholinothieno[3,2-d]pyrimidin-2-yl)piperidin-4-yl)benzenesulfonamide]

inhibition at 0.5 µM [1]: 67.3%
solubility [2, 12]: 10 µg/mL (≈ 22 µM)
Structure (SMILES): CC(C)(C)OC(=O)NC1CCN(c2nc(N3CCOCC3)c3oc4ncccc4c3n2)CC1 [Compound 6, tert-butyl (1-(4-morpholinopyrido [3′,2′:4,5]furo[3,2-d]pyrimidin-2-yl)piperidin-4-yl)carbamate]

solubility [2, 14]: 5 µg/mL (≈ 14.4 µM)
Structure (SMILES): Oc1cccc(-c2nc(N3CCOCC3)c3oc4ncccc4c3n2)c1 [PI-103, reference compound]
metabolism [11]: rapid metabolism

inhibition at 0.5 µM [1]: 40%
Structure (SMILES): CCOC(=O)c1ccc(NC(=O)NC2CCN(c3nc(N4CCOCC4)c4sc(C(C)(C)O)cc4n3)CC2)cc1 [Compound 26, ethyl 4-(3-(1-(6-(2-hydroxypropan-2-yl)-4-morpholinothieno[3,2-d]pyrimidin-2-yl)piperidin-4-yl)ureido)benzoate]

% PI3Kα inhibition at 500 nM [1]: 70%
inhibition at 0.5 µM [1]: > 70%
Structure (SMILES): O=C(Nc1ccc(C(F)(F)F)cc1)NC1CCN(c2nc(N3CCOCC3)c3sccc3n2)CC1 [Compound 24, 1-(1-(4-morpholinothieno[3,2-d]pyrimidin-2-yl)piperidin-4-yl)-3-(4-(trifluoromethyl)phenyl)urea]
IC50 [6]: 13 µM
IC50 [7]: 8 µM
IC50 [8]: 9 µM

inhibition at 0.5 µM [1]: 33%
Structure (SMILES): COc1ccc(S(=O)(=O)NC2CCN(c3nc(N4CCOCC4)c4sccc4n3)CC2)cc1 [Compound 27, 4-methoxy-N-(1-(4-morpholinothieno[3,2-d]pyrimidin-2-yl)piperidin-4-yl)benzenesulfonamide]

solubility [2, 14]: 16 µg/mL (≈ 31.1 µM)
Structure (SMILES): CS(=O)(=O)N1CCN(Cc2cc3nc(-c4cccc5[nH]ncc45)nc(N4CCOCC4)c3s2)CC1 [GDC-0941, reference compound]

inhibition at 0.5 µM [1]: < 0%
Structure (SMILES): CC(C)(C)OC(=O)NC1CCN(c2nc(N3CCOCC3)c3sccc3n2)CC1 [Compound 16, tert-butyl (1-(4-morpholino thieno[3,2-d]pyrimidin-2-yl)piperidin-4-yl)carbamate]
